Assay results as given in patent publication US11752120B2, “Use of succinic acid in increasing sensitivity of bacteria to antibiotics” (SUN YAT-SEN UNIVERSITY, priority 2018, dated 2023).

How the values were obtained:
[1] = test system: clinical Escherichia coli YT1-30; experiment: Minimum inhibitory concentration (MIC), NCCLS method, 30 clinical strains; type: cell-based; parameters: Minimum inhibitory concentration (MIC): unit not given here
Source text: (§1) Escherichia coli (E. coli) are one of the most common bacteria in the clinic. 30 strains of E. coli obtained from the clinic were named YT1-30. The minimum inhibitory concentrations (MIC) of 8 antibiotics against these 30 clinically obtained E. coli was detected according to the NCCLS method, and E. coli K12 was used as a control.

E. coli K12 = experiment: Minimum inhibitory concentration (MIC), NCCLS method, control strain; type: cell-based, Escherichia coli; settings: no unit in table, MIC in μg/mL
Source text: as §1

[2] = test system: clinical Escherichia coli biofilm; experiment: In vitro bactericidal assay of biofilm; type: cell-based; settings: catheter biofilm, 6 hours; succinic acid 580 mg/kg; ampicillin 2000 mg/kg for YT16, 500 mg/kg for YT28
Protocol: […] of clinical Escherichia coli (YT3, YT11, YT12, YT16, YT17, YT21, YT22, YT23, YT28, YT33) were picked, monocloned into LB medium, and cultured overnight, then were transferred into 2 mL fresh LB medium at 1:200, and added with a 6 mm PE-50 biological catheter that was sterilized by UV, and cultured in a 37° C. incubator for culture for 24 hours. The bacterial solution was replaced with 1 mL of LB medium daily, and the catheter was continuously cultured for 3 days. The prepared biofilm was washed 5 times with 1 mL of sterile normal saline, and then placed in a 1.5 mL EP tube.
The assay was divided into 4 groups: normal saline control group, succinic acid group, ampicillin group, ampicillin+succinic acid group, and the catheters were treated in a shaker at 37° C. and 200 rpm. A dosage of succinic acid was 580 mg/kg, and a dosage of ampicillin was 2000 mg/kg for YT16, and 500 mg/kg for YT28. After 6 hours, ultrasonic cleaning was conducted for 15 minutes, the biofilm on the catheter was eluted and thoroughly mixed, and after gradient dilution, spot plate counting was performed. The formula for calculating the bacterial survival rate is: number of viable bacteria in each group/number of viable bacteria in the control group×100%.

[3] = test system: clinical Escherichia coli YT16 and YT28; experiment: Viable bacteria count / survival rate after antibiotic with or without succinic acid in M9 medium; type: cell-based
Protocol: A single colony of clinical bacteria was picked from a solid LB plate and was inoculated in 5 mL LB liquid medium for culture at 37° C. and 200 rpm for 16 hours, and then was inoculated in 100 mL LB liquid medium at a ratio of 1:100 (v/v) and was cultured at 37° C. until OD600 value was 1.0. 20 mL of bacterial solution was collected and centrifuged at 8000 rpm for 5 minutes, the supernatant was cleared and bacterial cells were washed with an equal volume of 0.85% normal saline, and finally the bacterial cells were suspended with 1×M9 basic medium (containing 10 mM acetate), the OD value of the bacterial solution was adjusted to 0.5, and then 5 mL of the bacterial solution was aliquoted in a test tube for the following experimental studies.
The survival rates of the clinical bacteria in medium with adding succinic acid and without adding succinic acid at the same antibiotic concentration were compared.
The formula is the number of viable bacteria when different concentrations of succinic acid were added/the number of viable bacteria without adding succinic acid×100%.
In order to study whether clinical Escherichia coli has effect on penicillin antibiotics after adding succinic acid, two clinical Escherichia coli samples of YT16 and YT28 were prepared according to step 2 in Embodiment 1, 20 mM succinic acid and 3 kinds of penicillin were added respectively, […], the number of viable bacteria was counted, and the survival rate was calculated. […]

CC1(C)S[C@@H]2[C@H](NC(=O)[C@H](N)c3ccccc3)C(=O)N2[C@H]1C(=O)O [Ampicillin]
Minimum inhibitory concentration (MIC) ([1]; strain YT1): 25000 | Minimum inhibitory concentration (MIC) ([1]; strain YT2): 6250 | Minimum inhibitory concentration (MIC) ([1]; strain YT3): 390.625 | Minimum inhibitory concentration (MIC) ([1]; strain YT4): 6250 | Minimum inhibitory concentration (MIC) ([1]; strain YT5): 25000 | Minimum inhibitory concentration (MIC) ([1]; strain YT6): 1562.5 | Minimum inhibitory concentration (MIC) ([1]; strain YT7): 1562.5 | Minimum inhibitory concentration (MIC) ([1]; strain YT8): 1562.5 | Minimum inhibitory concentration (MIC) ([1]; strain YT9): 1562.5 | Minimum inhibitory concentration (MIC) ([1]; strain YT10): 6250 | Minimum inhibitory concentration (MIC) ([1]; strain YT11): 1562.5 | Minimum inhibitory concentration (MIC) ([1]; strain YT12): 6250 | Minimum inhibitory concentration (MIC) ([1]; strain YT13): 6250 | Minimum inhibitory concentration (MIC) ([1]; strain YT14): 6250 | Minimum inhibitory concentration (MIC) ([1]; strain YT15): 6250 | Minimum inhibitory concentration (MIC) ([1]; strain YT16): 6250 | Minimum inhibitory concentration (MIC) ([1]; strain YT17): 6250 | Minimum inhibitory concentration (MIC) ([1]; strain YT18): 6250 | Minimum inhibitory concentration (MIC) ([1]; strain YT19): 1562.5 | Minimum inhibitory concentration (MIC) ([1]; strain YT20): 1562.5 | Minimum inhibitory concentration (MIC) ([1]; strain YT21): 1562.5 | Minimum inhibitory concentration (MIC) ([1]; strain YT22): 6250 | Minimum inhibitory concentration (MIC) ([1]; strain YT23): 1562.5 | Minimum inhibitory concentration (MIC) ([1]; strain YT24): 6250 | Minimum inhibitory concentration (MIC) ([1]; strain YT25): 6250 | Minimum inhibitory concentration (MIC) ([1]; strain YT26): 6250 | Minimum inhibitory concentration (MIC) ([1]; strain YT27): 6250 | Minimum inhibitory concentration (MIC) ([1]; strain YT28): 1562.5 | Minimum inhibitory concentration (MIC) ([1]; strain YT29): 6250 | Minimum inhibitory concentration (MIC) ([1]; strain YT30): 25000 | Minimum inhibitory concentration (MIC) (E. coli K12): 6.1 | clearance of clinical Escherichia coli on the biofilms, used alone [2]: cannot clear | survival rate ([3]; YT16, 2.5 mg/mL ampicillin without adding succinic acid, 4 hours): 61.04% | survival rate ([3]; YT16, 5 mg/mL ampicillin without adding succinic acid, 4 hours): 34.53% | survival rate ([3]; YT16, 10 mg/mL ampicillin without adding succinic acid, 4 hours (FIG. 1)): 25.99% | survival rate ([3]; YT16, 10 mg/mL ampicillin without adding succinic acid, 4 hours (FIG. 3)): 73.8% | survival rate ([3]; YT16, 20 mg/mL ampicillin without adding succinic acid, 4 hours): 12.47% | survival rate ([3]; YT16, only 10 mg/mL ampicillin added, 1 hour (FIG. 2)): 93.89% | survival rate ([3]; YT16, only 10 mg/mL ampicillin added, 4 hours (FIG. 2)): 47.34% | survival rate ([3]; YT16, only 10 mg/mL ampicillin added, 7 hours (FIG. 2)): 18.45% | survival rate ([3]; YT28, 2.5 mg/mL ampicillin without adding succinic acid, 4 hours): 68.38% | survival rate ([3]; YT28, 5 mg/mL ampicillin without adding succinic acid, 4 hours): 56.25% | survival rate ([3]; YT28, 10 mg/mL ampicillin without adding succinic acid, 4 hours (FIG. 1)): 35.87% | survival rate ([3]; YT28, 10 mg/mL ampicillin without adding succinic acid, 4 hours (FIG. 3)): 86.21% | survival rate ([3]; YT28, 20 mg/mL ampicillin without adding succinic acid, 4 hours): 27.09% | survival rate ([3]; YT28, only 10 mg/mL ampicillin added, 1 hour (FIG. 2)): 96.79% | survival rate ([3]; YT28, only 10 mg/mL ampicillin added, 4 hours (FIG. 2)): 26.79% | survival rate ([3]; YT28, only 10 mg/mL ampicillin added, 7 hours (FIG. 2)): 14.18%

Gentamicin
Minimum inhibitory concentration (MIC) ([1]; strain YT1): 2.441 | Minimum inhibitory concentration (MIC) ([1]; strain YT2): 156.25 | Minimum inhibitory concentration (MIC) ([1]; strain YT3): 156.25 | Minimum inhibitory concentration (MIC) ([1]; strain YT4): 9.765 | Minimum inhibitory concentration (MIC) ([1]; strain YT5): 625 | Minimum inhibitory concentration (MIC) ([1]; strain YT6): 156.25 | Minimum inhibitory concentration (MIC) ([1]; strain YT7): 625 | Minimum inhibitory concentration (MIC) ([1]; strain YT8): 625 | Minimum inhibitory concentration (MIC) ([1]; strain YT9): 156.25 | Minimum inhibitory concentration (MIC) ([1]; strain YT10): 625 | Minimum inhibitory concentration (MIC) ([1]; strain YT11): 2500 | Minimum inhibitory concentration (MIC) ([1]; strain YT12): 2500 | Minimum inhibitory concentration (MIC) ([1]; strain YT13): 2500 | Minimum inhibitory concentration (MIC) ([1]; strain YT14): 2500 | Minimum inhibitory concentration (MIC) ([1]; strain YT15): 2500 | Minimum inhibitory concentration (MIC) ([1]; strain YT16): 2500 | Minimum inhibitory concentration (MIC) ([1]; strain YT17): 2500 | Minimum inhibitory concentration (MIC) ([1]; strain YT18): 2.441 | Minimum inhibitory concentration (MIC) ([1]; strain YT19): 625 | Minimum inhibitory concentration (MIC) ([1]; strain YT20): 156.25 | Minimum inhibitory concentration (MIC) ([1]; strain YT21): 2500 | Minimum inhibitory concentration (MIC) ([1]; strain YT22): 2500 | Minimum inhibitory concentration (MIC) ([1]; strain YT23): 156.25 | Minimum inhibitory concentration (MIC) ([1]; strain YT24): 625 | Minimum inhibitory concentration (MIC) ([1]; strain YT25): 2500 | Minimum inhibitory concentration (MIC) ([1]; strain YT26): 2500 | Minimum inhibitory concentration (MIC) ([1]; strain YT27): 625 | Minimum inhibitory concentration (MIC) ([1]; strain YT28): 2500 | Minimum inhibitory concentration (MIC) ([1]; strain YT29): 625 | Minimum inhibitory concentration (MIC) ([1]; strain YT30): 39.0625 | Minimum inhibitory concentration (MIC) (E. coli K12): 0.61
